Data: patent US20230085307A1, “PYRIDAZINONE COMPOUND AND HERBICIDE” (NISSAN CHEMICAL CORPORATION, priority 2019, published 2023)

Columns and labels:
Chinese sprangletop = assay: Test Example 3: herbicidal effect by foliage application, Wagner pot (Table 18, symbol D); type: in vivo, chinese sprangletop (Leptochloa chinensis); details: 320 g/ha
Procedure, shortened: (§1)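 Plants were sown in alluvial soil held under 0.1–0.5 cm standing water and grown 14 days in a greenhouse at 25–30 °C. An emulsifiable formulation, water-diluted to the set dose, was then sprayed onto the foliage, and effects were scored three weeks later using previously defined criteria.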

rice flat sedge = assay: Test Example 3: herbicidal effect by foliage application, Wagner pot (Table 18, symbol E); type: in vivo, rice flat sedge (Cyperus iria); details: 320 g/ha
Procedure, shortened: as §1

southern crabgrass [1] = assay: Test Example 4: herbicidal effect by soil treatment (Table 19, symbol F); type: in vivo, southern crabgrass (Digitaria ciliaris); details: amount of applied herbicide 320 g/ha
Procedure, shortened: (§2)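 Seeds were sown in sterilized diluvial soil and covered with about 1.5 cm of soil. An emulsion formulation diluted with water to a predetermined herbicide amount was sprayed evenly onto the soil surface. Plants grew in a greenhouse at 25° C. to 30° C., and the effect was scored three weeks after application using criteria from an earlier test.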

green foxtail [2] = assay: Test Example 4: herbicidal effect by soil treatment (Table 19, symbol G); type: in vivo, green foxtail (Setaria viridis); details: amount of applied herbicide 320 g/ha
Procedure, shortened: as §2

barnyard grass [3] = assay: Test Example 4: herbicidal effect by soil treatment (Table 19, symbol H); type: in vivo, barnyard grass (Echinochloa crus-galli); details: amount of applied herbicide 320 g/ha
Procedure, shortened: as §2

wild oat [4] = assay: Test Example 4: herbicidal effect by soil treatment (Table 19, symbol I); type: in vivo, wild oat (Avena fatua); details: amount of applied herbicide 320 g/ha
Procedure, shortened: as §2

blackgrass [5] = assay: Test Example 4: herbicidal effect by soil treatment (Table 19, symbol J); type: in vivo, blackgrass (Alopecurus myosuroides); details: amount of applied herbicide 320 g/ha
Procedure, shortened: as §2

Italian ryegrass [6] = assay: Test Example 4: herbicidal effect by soil treatment (Table 19, symbol K); type: in vivo, Italian ryegrass (Lolium multiflorum); details: amount of applied herbicide 320 g/ha
Procedure, shortened: as §2

windgrass [7] = assay: Test Example 4: herbicidal effect by soil treatment (Table 19, symbol L); type: in vivo, windgrass (Apera spica-venti); details: amount of applied herbicide 320 g/ha
Procedure, shortened: as §2

velvetleaf [8] = assay: Test Example 4: herbicidal effect by soil treatment (Table 19, symbol M); type: in vivo, velvetleaf (Abutilon theophrasti); details: amount of applied herbicide 320 g/ha
Procedure, shortened: as §2

redroot pigweed [9] = assay: Test Example 4: herbicidal effect by soil treatment (Table 19, symbol N); type: in vivo, redroot pigweed (Amaranthus retroflexus); details: amount of applied herbicide 320 g/ha
Procedure, shortened: as §2

lambsquarters [10] = assay: Test Example 4: herbicidal effect by soil treatment (Table 19, symbol O); type: in vivo, lambsquarters (Chenopodium album); details: amount of applied herbicide 320 g/ha
Procedure, shortened: as §2

chickweed = assay: Test Example 4: herbicidal effect by soil treatment (Table 19, symbol P); type: in vivo, common chickweed (Stellaria media); details: amount of applied herbicide 320 g/ha
Procedure, shortened: as §2

persian speedwell [11] = assay: Test Example 4: herbicidal effect by soil treatment (Table 19, symbol R); type: in vivo, Persian speedwell (Veronica persica); details: amount of applied herbicide 320 g/ha
Procedure, shortened: as §2

southern crabgrass [12] = assay: Test Example 5: herbicidal effect by foliage application, plastic box (Table 20, symbol F); type: in vivo, southern crabgrass (Digitaria ciliaris); details: 320 g/ha
Procedure, shortened: (§3)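 Plants sown in sterilized diluvial soil and grown 14 days in a greenhouse at 25° C to 30° C, then sprayed on the foliage with the compound's emulsion diluted in water to a predetermined herbicide amount. Injury to weeds and crops scored three weeks after application on a visual rating scale.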

green foxtail [13] = assay: Test Example 5: herbicidal effect by foliage application, plastic box (Table 20, symbol G); type: in vivo, green foxtail (Setaria viridis); details: 320 g/ha
Procedure, shortened: as §3

barnyard grass [14] = assay: Test Example 5: herbicidal effect by foliage application, plastic box (Table 20, symbol H); type: in vivo, barnyard grass (Echinochloa crus-galli); details: 320 g/ha
Procedure, shortened: as §3

wild oat [15] = assay: Test Example 5: herbicidal effect by foliage application, plastic box (Table 20, symbol I); type: in vivo, wild oat (Avena fatua); details: 320 g/ha
Procedure, shortened: as §3

blackgrass [16] = assay: Test Example 5: herbicidal effect by foliage application, plastic box (Table 20, symbol J); type: in vivo, blackgrass (Alopecurus myosuroides); details: 320 g/ha
Procedure, shortened: as §3

Italian ryegrass [17] = assay: Test Example 5: herbicidal effect by foliage application, plastic box (Table 20, symbol K); type: in vivo, Italian ryegrass (Lolium multiflorum); details: 320 g/ha
Procedure, shortened: as §3

windgrass [18] = assay: Test Example 5: herbicidal effect by foliage application, plastic box (Table 20, symbol L); type: in vivo, windgrass (Apera spica-venti); details: 320 g/ha
Procedure, shortened: as §3

velvetleaf [19] = assay: Test Example 5: herbicidal effect by foliage application, plastic box (Table 20, symbol M); type: in vivo, velvetleaf (Abutilon theophrasti); details: 320 g/ha
Procedure, shortened: as §3

redroot pigweed [20] = assay: Test Example 5: herbicidal effect by foliage application, plastic box (Table 20, symbol N); type: in vivo, redroot pigweed (Amaranthus retroflexus); details: 320 g/ha, foliage application after 14-day growth, evaluated three weeks after application
Procedure, shortened: as §3

lambsquarters [21] = assay: Test Example 5: herbicidal effect by foliage application, plastic box (Table 20, symbol O); type: in vivo, lambsquarters (Chenopodium album); details: 320 g/ha
Procedure, shortened: as §3

persian speedwell [22] = assay: Test Example 5: herbicidal effect by foliage application, plastic box (Table 20, symbol R); type: in vivo, Persian speedwell (Veronica persica); details: 320 g/ha
Procedure, shortened: as §3

barnyard grass [23] = assay: Test Example 3: herbicidal effect by foliage application, Wagner pot (Table 18, symbol H); type: in vivo, barnyard grass (Echinochloa crus-galli); details: 320 g/ha
Procedure, shortened: as §1

[24] = foliage application after 14-day growth, evaluated three weeks after application
[25] = foliage application, three weeks after application

## CCOc1cccc(-c2sc3c(Cl)cccc3c2-c2c(O)c(C)nn(C)c2=O)c1 [4-066]
Chinese sprangletop
  herbicidal effect on Chinese sprangletop (D): 0 (Herbicidal rate of 5% or less (almost no effect))
Rice flat sedge
  herbicidal effect on rice flat sedge (E): 3 (Herbicidal rate of 40% or more and less than 70%)
Southern crabgrass [1]
  Herbicidal effect by soil treatment, F: southern crabgrass: 0 (Herbicidal rate of 5% or less (almost no effect))
Green foxtail [2]
  Herbicidal effect by soil treatment, G: green foxtail: 0 (Herbicidal rate of 5% or less (almost no effect))
Barnyard grass [3]
  Herbicidal effect by soil treatment, H: barnyard grass: 0 (Herbicidal rate of 5% or less (almost no effect))
Wild oat [4]
  Herbicidal effect by soil treatment, I: wild oat: 0 (Herbicidal rate of 5% or less (almost no effect))
Blackgrass [5]
  Herbicidal effect by soil treatment, J: blackgrass: 0 (Herbicidal rate of 5% or less (almost no effect))
Italian ryegrass [6]
  Herbicidal effect by soil treatment, K: Italian ryegrass: 0 (Herbicidal rate of 5% or less (almost no effect))
Windgrass [7]
  Herbicidal effect by soil treatment, L: windgrass: 0 (Herbicidal rate of 5% or less (almost no effect))
Velvetleaf [8]
  Herbicidal effect by soil treatment, M: velvetleaf: 0 (Herbicidal rate of 5% or less (almost no effect))
Redroot pigweed [9]
  Herbicidal effect by soil treatment, N: redroot pigweed: 0 (Herbicidal rate of 5% or less (almost no effect))
Lambsquarters [10]
  Herbicidal effect by soil treatment, O: lambsquarters: 0 (Herbicidal rate of 5% or less (almost no effect))
chickweed
  Herbicidal effect by soil treatment, P: chickweed: 0 (Herbicidal rate of 5% or less (almost no effect))
Persian speedwell [11]
  Herbicidal effect by soil treatment, R: persian speedwell: 4 (Herbicidal rate of 70% or more and less than 90%)
Southern crabgrass [12]; [24]
  herbicidal effect on F: southern crabgrass (evaluation grade 0-5): 0 (Herbicidal rate of 5% or less (almost no effect))
Green foxtail [13]; [24]
  herbicidal effect on G: green foxtail (evaluation grade 0-5): 1 (Herbicidal rate of 5% or more and less than 20%)
Barnyard grass [14]; [24]
  herbicidal effect on H: barnyard grass (evaluation grade 0-5): 3 (Herbicidal rate of 40% or more and less than 70%)
Wild oat [15]; [24]
  herbicidal effect on I: wild oat (evaluation grade 0-5): 0 (Herbicidal rate of 5% or less (almost no effect))
Blackgrass [16]; [24]
  herbicidal effect on J: blackgrass (evaluation grade 0-5): 0 (Herbicidal rate of 5% or less (almost no effect))
Italian ryegrass [17]; [24]
  herbicidal effect on K: Italian ryegrass (evaluation grade 0-5): 3 (Herbicidal rate of 40% or more and less than 70%)
Windgrass [18]; [24]
  herbicidal effect on L: windgrass (evaluation grade 0-5): 0 (Herbicidal rate of 5% or less (almost no effect))
Velvetleaf [19]; [24]
  herbicidal effect on M: velvetleaf (evaluation grade 0-5): 4 (Herbicidal rate of 70% or more and less than 90%)
Redroot pigweed [20]
  herbicidal effect on N: redroot pigweed (evaluation grade 0-5): 4 (Herbicidal rate of 70% or more and less than 90%)
Lambsquarters [21]; [24]
  herbicidal effect on O: lambsquarters (evaluation grade 0-5): 3 (Herbicidal rate of 40% or more and less than 70%)
Persian speedwell [22]; [24]
  herbicidal effect on R: persian speedwell (evaluation grade 0-5): 3 (Herbicidal rate of 40% or more and less than 70%)

## CCCC(=O)Oc1c(C)nn(C)c(=O)c1-c1c(-c2ccc(F)cc2OCC)sc2cc(Cl)c(Cl)cc12 [5-054]
Barnyard grass [23]
  herbicidal effect on barnyard grass (H): 4 (Herbicidal rate of 70% or more and less than 90%)
Chinese sprangletop
  herbicidal effect on Chinese sprangletop (D): 2 (Herbicidal rate of 20% or more and less than 40%)
Rice flat sedge
  herbicidal effect on rice flat sedge (E): 5 (Herbicidal rate of 90% or more (almost completely withered))
Southern crabgrass [1]
  F: southern crabgrass, herbicidal effect grade: 0 (Herbicidal rate of 5% or less (almost no effect))
Green foxtail [2]
  G: green foxtail, herbicidal effect grade: 0 (Herbicidal rate of 5% or less (almost no effect))
Barnyard grass [3]
  H: barnyard grass, herbicidal effect grade: 0 (Herbicidal rate of 5% or less (almost no effect))
Wild oat [4]
  I: wild oat, herbicidal effect grade: 0 (Herbicidal rate of 5% or less (almost no effect))
Blackgrass [5]
  J: blackgrass, herbicidal effect grade: 0 (Herbicidal rate of 5% or less (almost no effect))
Italian ryegrass [6]
  K: Italian ryegrass, herbicidal effect grade: 0 (Herbicidal rate of 5% or less (almost no effect))
Windgrass [7]
  L: windgrass, herbicidal effect grade: 0 (Herbicidal rate of 5% or less (almost no effect))
Velvetleaf [8]
  M: velvetleaf, herbicidal effect grade: 0 (Herbicidal rate of 5% or less (almost no effect))
Redroot pigweed [9]
  N: redroot pigweed, herbicidal effect grade: 0 (Herbicidal rate of 5% or less (almost no effect))
Lambsquarters [10]
  O: lambsquarters, herbicidal effect grade: 0 (Herbicidal rate of 5% or less (almost no effect))
chickweed
  P: chickweed, herbicidal effect grade: 2 (Herbicidal rate of 20% or more and less than 40%)
Persian speedwell [11]
  R: persian speedwell, herbicidal effect grade: 0 (Herbicidal rate of 5% or less (almost no effect))
Southern crabgrass [12]; [25]
  herbicidal effect on southern crabgrass (F): 2 (Herbicidal rate of 20% or more and less than 40%)
Green foxtail [13]; [25]
  herbicidal effect on green foxtail (G): 2 (Herbicidal rate of 20% or more and less than 40%)
Barnyard grass [14]; [25]
  herbicidal effect on barnyard grass (H): 4 (Herbicidal rate of 70% or more and less than 90%)
Wild oat [15]; [25]
  herbicidal effect on wild oat (I): 0 (Herbicidal rate of 5% or less (almost no effect))
Blackgrass [16]; [25]
  herbicidal effect on blackgrass (J): 0 (Herbicidal rate of 5% or less (almost no effect))
Italian ryegrass [17]; [25]
  herbicidal effect on Italian ryegrass (K): 0 (Herbicidal rate of 5% or less (almost no effect))
Windgrass [18]; [25]
  herbicidal effect on windgrass (L): 1 (Herbicidal rate of 5% or more and less than 20%)
Velvetleaf [19]; [25]
  herbicidal effect on velvetleaf (M): 4 (Herbicidal rate of 70% or more and less than 90%)
Lambsquarters [21]; [25]
  herbicidal effect on lambsquarters (O): 3 (Herbicidal rate of 40% or more and less than 70%)
Persian speedwell [22]; [25]
  herbicidal effect on persian speedwell (R): 4 (Herbicidal rate of 70% or more and less than 90%)
